Laboratory results from article PMC12501029, “Discovery of a CNS active GSK3 degrader using orthogonally reactive linker screening” (Nature Communications, 2025).

Columns and labels:
[1] = test system: GSK3β Ser9 and GSK3β Tyr216 phosphorylation; experiment: GSK3β phosphorylation (Ser9, Tyr216) immunoblot in HEK293 cells; format: cell-based, human; conditions: 10 nM 24, 27; 10 nM and 1 µM 29; 30 min
Description: HEK293, HAP1, HAP1 CRBN KO and SH-SY5Y cells were plated in either 6 cm plates or 6-well plates at varying densities (0.5–0.7 × 10^6 cells per plate or wells), and MEF cells were plated in 10 cm plates (1–1.2 × 10^6 cells per plate) depending on experimental set up in respective culturing condition as described above. Stock solutions of compounds were prepared as 10 mM in DMSO (Sigma–Aldrich). Working dilutions were made up fresh in DMSO and culturing media or differentiation media was refreshed prior to any compound treatments. For mode of action studies, cells were pre-treated with inhibitors for 2 h: 1 µM MG132 (Merck, 474790-5 mg), 1 µM MLN4924 (Merck, 5054770001) or 1 µM GSK3 inhibitor (compound 29), before treating with PROTACs for 2, 4 or 24 h as indicated in figure legends. Cells were washed twice with ice-cold PBS (Gibco), harvested in PBS and pelleted, cells were resuspended in RIPA buffer supplemented with complete EDTA-free protease inhibitor cocktail (Roche,11873580001, 1/10 mL) and phosSTOP (Roche, 04906845001, 1 tablet/10 mL) for 20 min lysis on ice then cleared via centrifugation at 16,000 × g, 4 °C for 20 min. SH-SY5Y cells were lysed in 500 µL ice-cold lysis buffer (25 mM Tris-HCl (pH 7.4), 50 mM NaF, 100 mM NaCl, 1 mM EDTA, 4 mM EGTA, 1% (v/v) Triton-X-100, 0.09% (w/v) sucrose, 10 mM sodium pyrophosphate, 10 mM sodium vanodate, 0.1% (v/v) β-mercaptoethanol, supplemented with complete mini protease inhibitor tablet (Sigma; 1 tablet/ 10 mL buffer)). Lysates were flash frozen, thawed and centrifugated at 16,000 × g, 4 °C for 20 min. Following clearance of lysates, protein concentrations were determined by the BCA assay (Fisher Scientific, 23225) or Bradford assay (Bio-rad). Five to thirty micrograms of protein from lysates were prepared in 4×LDS buffer (Thermo Fisher) and 50 mM dithiothreitol (DTT) denaturated at 95 °C for 5 min. Proteins were separated on NuPAGE 4–12% Bis-Tris gels (Invitrogen) or 4–12% Novex Tris-glycine gels (Invitrogen) in MOPS buffer (Invitrogen) and transferred onto nitrocellulose membranes using an iBlot3 system (Thermo Fisher Scientific) or nitrocellulose membranes (Cytiva) in cold tris-glycine-methanol buffer (25 mM Tris (pH 7.5), 192 mM glycine, 20% (v/v) methanol). Membranes were blocked with either 5% fat-free milk (Marvel) or 1% (w/v) BSA (Sigma) in TBS-T (20 mM Tris (pH 7.5), 150 mM NaCl, 0.1% (v/v) Tween-20 (Sigma)) at room temperature for 30 min, or in the case of SH-SY5Y assays, 1 h, before incubating with primary antibodies overnight at 4 °C on a rocker. […]

mouse GSK3β = molecular target: T1, mouse GSK3β (Mus musculus, UniProt Q9WV60); experiment: Immunoblot degradation in mouse embryonic fibroblast (MEF) cells, 4 h; format: cell-based
T1 construct: Immunoblotting based endogenous degradation profile of KH1 (24) in mouse embryonic fibroblast (MEF) cells; host or cells: MEF cells
Description: HEK293, HAP1, HAP1 CRBN KO and SH-SY5Y cells were plated in either 6 cm plates or 6-well plates at varying densities (0.5–0.7 × 10^6 cells per plate or wells), and MEF cells were plated in 10 cm plates (1–1.2 × 10^6 cells per plate) depending on experimental set up in respective culturing condition as described above. Stock solutions of compounds were prepared as 10 mM in DMSO (Sigma–Aldrich). Working dilutions were made up fresh in DMSO and culturing media or differentiation media was refreshed prior to any compound treatments. For mode of action studies, cells were pre-treated with inhibitors for 2 h: 1 µM MG132 (Merck, 474790-5 mg), 1 µM MLN4924 (Merck, 5054770001) or 1 µM GSK3 inhibitor (compound 29), before treating with PROTACs for 2, 4 or 24 h as indicated in figure legends. Cells were washed twice with ice-cold PBS (Gibco), harvested in PBS and pelleted, cells were resuspended in RIPA buffer supplemented with complete EDTA-free protease inhibitor cocktail (Roche,11873580001, 1/10 mL) and phosSTOP (Roche, 04906845001, 1 tablet/10 mL) for 20 min lysis on ice then cleared via centrifugation at 16,000 × g, 4 °C for 20 min. […] Following clearance of lysates, protein concentrations were determined by the BCA assay (Fisher Scientific, 23225) or Bradford assay (Bio-rad). […]

T1 sequence (Q9WV60 whole entry): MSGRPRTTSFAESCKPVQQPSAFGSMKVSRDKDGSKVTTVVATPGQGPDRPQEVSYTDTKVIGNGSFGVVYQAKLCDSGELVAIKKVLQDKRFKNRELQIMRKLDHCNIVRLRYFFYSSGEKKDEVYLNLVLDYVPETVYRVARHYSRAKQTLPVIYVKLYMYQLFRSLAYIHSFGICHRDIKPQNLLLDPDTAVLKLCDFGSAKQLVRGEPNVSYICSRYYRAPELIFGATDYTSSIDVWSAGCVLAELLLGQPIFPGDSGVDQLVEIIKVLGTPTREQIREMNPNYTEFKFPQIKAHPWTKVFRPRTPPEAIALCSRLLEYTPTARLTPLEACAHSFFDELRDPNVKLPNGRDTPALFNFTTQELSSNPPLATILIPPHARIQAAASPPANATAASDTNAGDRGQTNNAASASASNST

Cn1nc(N2CCC(=O)NC2=O)c2ccc(CN3CCN(Cc4ccc(-c5cn(-c6ccc(-c7cn8nccc(C(=O)Nc9cnccc9N9CCOCC9)c8n7)cc6)nn5)nc4)CC3)cc21 [compound 24]
impact on GSK3β Ser9 or GSK3β Tyr216 phosphorylation prior to degradation [1]: no impact observed
DC50 (mouse GSK3β): 0.1 to 1 nM
